We go through one compound from ChEMBL document CHEMBL1201862, “PubChem BioAssay data set” (2004).

Calls of active or inactive are those of the source.

In assay [1] the target is Paired box protein Pax-8 (Homo sapiens, UniProt Q06710). The assay can be described thus: inhibitors of PAX8-driven TPO luciferase reporter, dose response, RMG-I cells, cherry-pick (AID 687027).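 Further: luciferase reporter driven by Pax8 target thyroperoxidase promoter measured by SteadyGlo luminescence.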 In kind it is functional, cell-based.
Paired box protein Pax-8, sequence (Q06710 whole entry): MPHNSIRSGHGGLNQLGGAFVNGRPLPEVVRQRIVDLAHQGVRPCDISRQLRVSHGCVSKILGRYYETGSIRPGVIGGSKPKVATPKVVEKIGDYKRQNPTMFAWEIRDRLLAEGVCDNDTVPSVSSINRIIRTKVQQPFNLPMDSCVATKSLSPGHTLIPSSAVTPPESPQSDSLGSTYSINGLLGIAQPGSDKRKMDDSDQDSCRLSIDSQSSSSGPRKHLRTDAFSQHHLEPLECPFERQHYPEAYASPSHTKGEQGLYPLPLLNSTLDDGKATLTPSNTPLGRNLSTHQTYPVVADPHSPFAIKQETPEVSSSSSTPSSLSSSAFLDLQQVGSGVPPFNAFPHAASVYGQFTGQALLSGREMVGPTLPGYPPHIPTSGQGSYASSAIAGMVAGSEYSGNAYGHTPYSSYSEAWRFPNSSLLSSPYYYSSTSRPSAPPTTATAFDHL
Assay [2] can be described thus: HepG2 cell cytotoxicity, dose response, cytotoxicity control for Shn3 inhibitor project, CellTiter-Glo, cherry-picked (AID 624134). It is filed as functional, cell-based.
The nature of assay [3]: HepG2 cell cytotoxicity, dose response, cytotoxicity control, plate reader, cherry-pick, antagonist series (AID 743416). It is filed as functional, cell-based.
The nature of assay [4]: Shn3 3'UTR reporter inhibitors, dose response, cell-based, Clone20 osteoblasts, firefly luciferase, cherry-picked (AID 624132).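 Further: firefly luciferase luminescence from reporter carrying the Shn3 3'UTR in osteoblasts.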 In kind it is functional.
The nature of assay [5]: inhibitors of PGC1a acetylation in cells, dose response, cell-based, cherry-picked samples (AID 720514).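 Further: potency may reflect raised or lowered acetylation signal.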 In kind it is functional.
Assay [6] concerns the target X-box-binding protein 1 (Homo sapiens, UniProt P17861). In kind it is functional, Cricetulus griseus.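 Further: confirmatory dose-response counter-screen serving a CHOP assay.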
Assay [7] is described as follows: control 3'UTR Renilla luciferase suppression, dose response, counter-screen for Shn3 inhibitor project, cell-based, Clone20-Shn3RL, cherry-picked (AID 624133). It is filed as functional.
In assay [8] the target is T1, Replicative DNA helicase DnaB (Mycobacterium tuberculosis, UniProt P9WMR3).
T1 sequence (P9WMR3 whole entry): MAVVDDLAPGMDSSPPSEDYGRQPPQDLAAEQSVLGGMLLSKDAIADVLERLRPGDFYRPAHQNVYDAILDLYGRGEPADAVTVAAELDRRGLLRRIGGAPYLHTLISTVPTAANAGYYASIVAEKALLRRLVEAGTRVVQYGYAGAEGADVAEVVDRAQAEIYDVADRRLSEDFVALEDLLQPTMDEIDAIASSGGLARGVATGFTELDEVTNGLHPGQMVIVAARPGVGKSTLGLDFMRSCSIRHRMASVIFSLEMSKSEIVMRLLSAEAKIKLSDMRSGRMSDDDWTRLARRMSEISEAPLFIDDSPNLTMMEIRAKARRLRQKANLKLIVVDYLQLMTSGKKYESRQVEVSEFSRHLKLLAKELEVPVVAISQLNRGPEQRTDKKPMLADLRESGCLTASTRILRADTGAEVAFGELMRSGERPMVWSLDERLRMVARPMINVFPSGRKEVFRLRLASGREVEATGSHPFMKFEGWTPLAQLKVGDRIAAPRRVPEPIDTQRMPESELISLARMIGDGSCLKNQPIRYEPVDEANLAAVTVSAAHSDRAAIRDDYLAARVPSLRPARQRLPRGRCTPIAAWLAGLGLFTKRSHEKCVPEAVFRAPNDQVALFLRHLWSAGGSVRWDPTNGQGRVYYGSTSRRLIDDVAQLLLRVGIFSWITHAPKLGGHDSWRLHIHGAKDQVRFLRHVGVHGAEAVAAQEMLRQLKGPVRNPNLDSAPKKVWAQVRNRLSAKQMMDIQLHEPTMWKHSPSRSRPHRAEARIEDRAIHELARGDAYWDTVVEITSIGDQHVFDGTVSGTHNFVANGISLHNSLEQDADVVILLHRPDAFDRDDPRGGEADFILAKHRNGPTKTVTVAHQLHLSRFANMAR
The assay can be described thus: DnaB intein splicing inhibitors, dose response, biochemical, cell-free fluorescence (AID 449749). It is filed as functional.

A short description of assay [9]: MC4R antagonists, dose response, counter-screen for LGR2 antagonist project, cell-based, plate reader, cherry pick (AID 743444).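 Further: transfected HEK 293 cells stimulated with alpha-MSH peptide; potency of inhibitors of the alpha-MSH evoked signal.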 In kind it is functional. (Counterscreens check selectivity or assay interference.)
Assay [10] has as its target T2, Insulin-degrading enzyme (Homo sapiens, UniProt P14735).
T2 sequence (P14735 whole entry): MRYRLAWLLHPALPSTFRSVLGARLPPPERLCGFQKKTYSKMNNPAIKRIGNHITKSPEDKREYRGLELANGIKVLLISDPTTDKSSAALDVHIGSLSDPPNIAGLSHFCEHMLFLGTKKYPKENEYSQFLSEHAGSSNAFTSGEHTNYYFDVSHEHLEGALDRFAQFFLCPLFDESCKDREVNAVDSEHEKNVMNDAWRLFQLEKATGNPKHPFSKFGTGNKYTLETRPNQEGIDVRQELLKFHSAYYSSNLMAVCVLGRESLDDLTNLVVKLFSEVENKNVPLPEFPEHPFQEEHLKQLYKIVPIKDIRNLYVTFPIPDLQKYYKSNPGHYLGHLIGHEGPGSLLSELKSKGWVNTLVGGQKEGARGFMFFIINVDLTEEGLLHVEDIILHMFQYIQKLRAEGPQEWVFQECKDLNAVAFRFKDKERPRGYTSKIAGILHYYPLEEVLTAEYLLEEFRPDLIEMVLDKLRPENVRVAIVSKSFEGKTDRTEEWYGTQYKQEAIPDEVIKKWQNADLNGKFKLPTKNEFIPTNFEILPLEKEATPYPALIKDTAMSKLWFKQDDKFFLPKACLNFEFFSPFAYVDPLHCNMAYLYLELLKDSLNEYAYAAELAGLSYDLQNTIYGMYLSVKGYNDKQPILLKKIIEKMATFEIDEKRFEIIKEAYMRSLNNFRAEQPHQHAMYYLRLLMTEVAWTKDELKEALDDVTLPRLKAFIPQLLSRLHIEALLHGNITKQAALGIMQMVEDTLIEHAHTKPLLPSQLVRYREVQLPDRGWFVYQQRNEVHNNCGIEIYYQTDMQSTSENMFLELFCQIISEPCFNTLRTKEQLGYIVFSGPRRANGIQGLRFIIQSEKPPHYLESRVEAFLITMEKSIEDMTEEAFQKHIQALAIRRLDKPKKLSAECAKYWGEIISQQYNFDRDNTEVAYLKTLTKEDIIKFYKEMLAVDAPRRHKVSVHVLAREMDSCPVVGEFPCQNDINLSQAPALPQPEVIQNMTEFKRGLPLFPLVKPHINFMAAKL
Briefly: activators of endogenous IDE in HEK cells, dose response, cell-based, fluorescence polarization (AID 588439). In kind it is functional.

Assay [11] deals with T3, Ubiquitin-conjugating enzyme E2 N (Homo sapiens, UniProt P61088).
T3 sequence (P61088 whole entry): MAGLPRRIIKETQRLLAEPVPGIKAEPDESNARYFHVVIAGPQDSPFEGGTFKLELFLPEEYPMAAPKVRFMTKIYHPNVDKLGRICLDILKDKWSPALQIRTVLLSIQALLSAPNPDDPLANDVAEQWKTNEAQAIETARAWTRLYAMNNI
In kind it is functional.

The target of assay [12] is T4, Calpain-2 catalytic subunit (Sus scrofa, UniProt P43367).
T4 sequence (P43367 whole entry): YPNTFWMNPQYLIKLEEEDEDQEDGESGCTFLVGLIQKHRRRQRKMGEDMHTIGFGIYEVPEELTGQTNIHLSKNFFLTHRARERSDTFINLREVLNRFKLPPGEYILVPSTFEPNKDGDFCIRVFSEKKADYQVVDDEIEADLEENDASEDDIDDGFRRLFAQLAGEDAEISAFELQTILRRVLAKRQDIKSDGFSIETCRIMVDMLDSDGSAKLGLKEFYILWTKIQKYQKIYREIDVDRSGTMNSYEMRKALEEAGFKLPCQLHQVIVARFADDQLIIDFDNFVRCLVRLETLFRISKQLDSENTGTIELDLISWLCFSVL
The assay can be described thus: pig calpain II inhibitor potency, dose response, biochemical, fluorogenic peptide substrate (AID 1420). It is filed as functional.

The test system of assay [13] is HEK293. The assay can be described thus: optical interference in Abeta FP readout, dose response, artefact control for IDE activator project, biochemical, fluorescence polarization (AID 588442). It is filed as functional, cell-based. The conditions noted are these: Homo sapiens. In general terms: In fluorescence polarisation assays a small probe gives low polarisation when free and higher when bound to something large.

X-box-binding protein 1, sequence (P17861 whole entry): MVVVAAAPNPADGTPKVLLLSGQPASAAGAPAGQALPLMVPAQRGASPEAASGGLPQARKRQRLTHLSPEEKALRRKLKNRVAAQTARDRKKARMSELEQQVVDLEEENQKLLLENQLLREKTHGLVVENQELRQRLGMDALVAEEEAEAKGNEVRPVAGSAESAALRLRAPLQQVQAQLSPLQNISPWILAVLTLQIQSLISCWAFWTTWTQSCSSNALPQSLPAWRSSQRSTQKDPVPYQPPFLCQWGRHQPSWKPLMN

A word on the AC50: it is the midpoint of the concentration-response curve, whichever way the signal moves. Broadly, the EC50 is the concentration at which the effect is half-maximal. Broadly, the IC50 is the concentration needed to halve the response being measured. As for `Cl.N=c1n(Cc2ccccc2)c2ccccc2n1CC(O)COc1ccc(Cl)cc1Cl` (stereo not drawn), the AC50 was 17.2 µM (active) in [1]; 14.3 µM (active) in assay [2]; 6.16 µM (active) in [3]; 2.89 µM (active) in assay [4]; 6.94 µM (active) in assay [5]; 5.16 µM (active) in assay [7]. For the same compound, the concentration at half-maximal activity (AC50) in assay [8] is 2.51 µM (active); in assay [9], 26.6 µM (active). Also, the “Absolute IC50 (XBP1)” value in assay [6] turned out to be 10 µM. In addition, the results for the EC50 in assay [10] and in assay [13] were 11.2 µM (inactive) and > 54.7 µM (inactive), respectively. The figures for the IC50 in [11] and in [12] were > 20 µM (inactive) and 33.4 µM (not active), respectively.
